Laboratory results from patent publication US20020107283A1, “Carbamate compounds for use in preventing or treating neuropathic pain and cluster and migraine headache-associated pain” (priority 2000, published 2002).

Legend:
[1] = test system: L5 and L6 spinal nerve ligated rats, mechanical allodynia; experiment: Antiallodynic activity, electronic Von Frey probes, L5 and L6 spinal nerve ligation; type: in vivo, Rj: Wistar (Han) rats
Experimental: Pathogen-free, male Rj: Wistar (Han) rats (300-380 g) were purchased from Elevage Janvier, 53940 Le Genest-Saint-Isle, France. The animals were maintained on a 12-h light/dark cycle (lights on from 7:00-19:00) in a controlled ambient temperature of 21±1° C., and relative humidity maintained at 40-70%. The animals had free access to food (UAR 113) and tap water until tested.
Rats were anesthetized (sodium pentobarbital 40 mg/kg i.p.). A ligature was tied tightly around the left L5 and L6 spinal nerves. The rats received an i.m. injection of 50 000 IU Penicillin (Diamant®) and were allowed to recover. This procedure results in mechanical allodynia in the left hind paw. Two weeks after the surgery, when the allodynic state was fully developed, rats were submitted consecutively to tactile stimulation of both the non-lesioned and the lesioned hindpaws.
The animals were placed on an elevated grid floor in Plexiglass boxes (19×11.5×13 cm). The tip of an electronic Von Frey probe (Bioseb, Model 1610) was then applied with increasing pressure to the lesioned and non-lesioned hindpaws and the force required to induce paw-withdrawal was automatically recorded. Prior to receiving drug treatment all animals were submitted to tactile stimulation and assigned to treatment groups matched on the basis of their pain response. This procedure was carried out 3 times for each paw and the mean paw force was calculated to provide basic scores per animal. Data were expressed as percent change (means ±SEM) of effectiveness from the controls. Statistical analysis was done using non-paired and paired Student's t tests.
As summarized in Table 2 below, an enantiomer of Formula (Ib) substantially free of other enantiomers was evaluated at the doses 10, 30 and 100 mg/kg (n=8), administered p.o. in a volume of 5 mL/kg. Morphine (128 mg/kg) was used as reference substance. Control animals received a p.o. administration of vehicle. The test was performed blind 30, 60 and 90 minutes after drug administration.

[2] = test system: Chung model of neuropathic pain (L5 spinal nerve ligated rats, mechanical allodynia); experiment: Antiallodynic activity in the Chung model, manually applied von Frey probes; type: in vivo, Sprague-Dawley rats
Source text: The procedure used to test the antiallodynic activity of an enantiomer of Formula (I) substantially free of other enantiomers was the procedure for the measurement of allodynia found in the Chung Model (Kim S. H. and Chung J. M., An Experimental Model for Peripheral Neuropathy Produced by Segmental Spinal Nerve Ligation in the Rat, Pain, 1992, 50, 355-363).
Pathogen-free, male albino Sprague-Dawley rats, 200 g, were purchased from Harlan Industries (Indianapolis, Ind.) and maintained on a 12-h light/dark cycle (lights on at 06:00 h) in a climate-controlled room with food and water available ad libitum up to the time of the testing and food withdrawn 18 hr prior to testing.
The rats were anesthetized with isoflurane inhalant anesthesia. The left lumbar spinal nerve at the level of L5 was tightly ligated (4-0 silk suture) distal to the dorsal root ganglion and prior to entrance into the sciatic nerve, as described by Kim and Chung. The incisions were closed and the rats were allowed to recover under conditions described above. This procedure results in mechanical allodynia in the left hind paw. The sham operation, when performed, consisted of a similar surgical procedure lacking only the final ligation of the spinal nerve. Mechanical (tactile) allodynia was assessed by recording the pressure at which the affected paw (ipsilateral to the site of nerve injury) was withdrawn from graded stimuli (von Frey filaments ranging from 4.0 to 148.1 mN) applied by hand perpendicularly to the plantar surface of the paw (between the footpads) through wire-mesh observation cages. A paw withdrawal threshold (PWT) was determined by sequentially increasing and decreasing the stimulus strength and analyzing withdrawal data using a Dixon non-parametric test, as described by Chaplan et al (Chaplan S. R., Bach F. W., Pogrel J. W., Chung J. M. and Yaksh T. L., Quantitative Assessment of Tactile Allodynia in the Rat Paw, J Neurosci Meth, 1994, 53, 55-63). Normal rats, sham operated rats, and the contralateral paw of L5 ligated rats withstand at least 148.1 mN (equivalent to 15 g) of pressure without responding. Spinal nerve ligated rats respond to as little as 4.0 mN (equivalent to 0.41 g) of pressure on the affected paw. […] The PWT was used to calculate the % maximal possible effect (% MPE) according to the formula:
% MPE=100×(PWT−CT)/(CO−CT).
As summarized in Table 1 below, the enantiomer of Formula (Ib) substantially free of other enantiomers was screened for antiallodynic activity in the Chung model of neuropathic pain at a dose of 30 mg/kg, po, with responses being measured at 0.5, 1, 2 and 4 hr post dosing.

Row | Compound | % Change (paw-withdrawal force from controls) ([1]; 128 mg/Kg morphine, positive control) [%] | % Maximum Possible Effect ([2]; 30 mg/kg, po, paw withdrawal threshold, activity seen at 30 min post-dosing, n=5) [%] | time course of antiallodynic activity ([2]; 30 mg/kg, po, responses measured at 0.5, 1, 2 and 4 hr post dosing) | dose dependence of antiallodynic responses ([2]; about 5 mg/kg, p.o. to about 45 mg/kg, p.o., 30 min) | time of peak antiallodynic effect ([2]; after oral dosing) [min] | maximum % MPE ([2]; highest dose tested (about 45 mg/kg, p.o.), 30 min after oral dosing, N=5) [%] | % Change (paw-withdrawal force from controls) ([1]; 10 mg/kg p.o., ligatured paw, 60 minute measurement, n=8, p ns) [%] | % Change (paw-withdrawal force from controls) ([1]; 30 mg/kg p.o., ligatured paw, 60 minute measurement, n=8, p <0.05) [%] | % Change (paw-withdrawal force from controls) ([1]; 100 mg/kg p.o., ligatured paw, 60 minute measurement, n=8, p <0.05) [%] | effect on the non-ligatured paw ([1]; 10, 30 and 100 mg/kg p.o., 60 minute measurement) | anti-allodynic effect at 90 min post-dosing ([1]; p.o., 90 min post-dosing)
1 | CN1CC[C@]23c4c5ccc(O)c4O[C@H]2[C@@H](O)C=C[C@H]3[C@H]1C5 [morphine, Morphine, reference compound] | 38 |  |  |  |  |  |  |  |  |  | 
2 | NC(=O)OC[C@@H](O)c1ccccc1Cl [enantiomer of Formula (Ib)] |  | 51 | exhibited antiallodynic activity at 30 min. post-dosing, and responses returned to baseline by one hour | dose-dependent | 30 | 60 | 65 | 80 | 72 | without affecting the non-ligatured paw | no longer present by 90 min post-dosing
